Results on 8 compounds are retold here after PubChem BioAssay AID1259411 (Chemical Carcinogenesis Research Information System (CCRIS), 2018).

The subject of the data set is rodent carcinogenicity bioassays, tumor incidence. Description: CCRIS carcinogenicity studies. The method in brief: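 Archive of carcinogenicity, mutagenicity, tumor promotion and tumor inhibition results drawn from journals, NCI reports and other sources, expert-reviewed; covers 1985-2011 and is no longer updated.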

The source made the active and inactive calls. The rule behind the calls is not given here.

On to `O=[N+]([O-])c1ccccc1`, for which the carcinogen call by setting is: (Species: MOUSE, Strain/Sex: B6C3F1/FEMALE, Route: INHALATION, Dose: 0, 5, 25, 50 PPM 6 HR/D 5 D/WK FOR 2 YR (STUDY DURATION: 2 YR), Dose: 0, 5, 25, 50 PPM 6 HR/D 5 D/WK FOR 2 YR (STUDY DURATION: 2 YR), Tumor Site: Type of Lesion: MAMMARY GLAND: ADENOCARCINOMA) “active; positive”; (Species: MOUSE, Strain/Sex: B6C3F1/MALE, Route: INHALATION, Dose: 0, 5, 25, 50 PPM 6 HR/D 5 D/WK FOR 2 YR (STUDY DURATION: 2 YR), Dose: 0, 5, 25, 50 PPM 6 HR/D 5 D/WK FOR 2 YR (STUDY DURATION: 2 YR), Tumor Site: Type of Lesion: LUNG: ADENOMA, ADENOMA OR CARCINOMA, THYROID GLAND: FOLLICULAR CELL ADENOMA) “active; positive”; (Species: RAT, Strain/Sex: F344/FEMALE, Route: INHALATION, Dose: 0, 1, 5, 25 PPM 6 HR/D 5 D/WK FOR 2 YR (STUDY DURATION: 2 YR), Dose: 0, 1, 5, 25 PPM 6 HR/D 5 D/WK FOR 2 YR (STUDY DURATION: 2 YR), Tumor Site: Type of Lesion: UTERUS: ENDOMETRIAL STROMAL POLYP) “active; positive”; (Species: RAT, Strain/Sex: F344/MALE, Route: INHALATION, Dose: 0, 1, 5, 25 PPM 6 HR/D 5 D/WK FOR 2 YR (STUDY DURATION: 2 YR), Dose: 0, 1, 5, 25 PPM 6 HR/D 5 D/WK FOR 2 YR (STUDY DURATION: 2 YR), Tumor Site: Type of Lesion: LIVER: HEPATOCELLULAR ADENOMA, HEPATOCELLULAR ADENOMA OR CARCINOMA, KIDNEY: TUBULAR ADENOMA, TUBULAR ADENOMA OR CARCINOM) “active; positive”; (Species: RAT, Strain/Sex: STRAIN-CD/MALE, Route: INHALATION, Dose: 0, 1, 5, 25 PPM 6 HR/D 5 D/WK FOR 2 YR (STUDY DURATION: 2 YR), Dose: 0, 1, 5, 25 PPM 6 HR/D 5 D/WK FOR 2 YR (STUDY DURATION: 2 YR), Tumor Site: Type of Lesion: LIVER: HEPATOCELLULAR ADENOMA, HEPATOCELLULAR ADENOMA OR CARCINOMA) “active; positive”.
Regarding `Nc1nc(=S)c2ncn([C@H]3C[C@H](O)[C@@H](CO)O3)c2[nH]1`, the carcinogen call is “active; positive” (Species: RAT, Strain/Sex: SPRAGUE-DAWLEY/FEMALE, Route: INTRAPERITONEAL, Dose: 0, 3.5, 7 MG/KG FOR 52 WK (STUDY DURATION: 78 WK), Dose: 0, 3.5, 7 MG/KG FOR 52 WK (STUDY DURATION: 78 WK), Tumor Site: Type of Lesion: EAR (CANAL): CARCINOMA, NOS OR SQUAMOUS CELL CARCINOMA) and “equivocal” (Species: RAT, Strain/Sex: SPRAGUE-DAWLEY/MALE, Route: INTRAPERITONEAL, Dose: 0, 3.5, 7 MG/KG FOR 52 WK (STUDY DURATION: 78 WK), Dose: 0, 3.5, 7 MG/KG FOR 52 WK (STUDY DURATION: 78 WK), Tumor Site: Type of Lesion: EAR (CANAL): CARCINOMA OR SQUAMOUS CELL CARCINOMA).
`Nc1ccc([N+](=O)[O-])cc1N`: the carcinogen call runs as follows: (Species: MOUSE, Strain/Sex: B6C3F1/FEMALE, Route: ORAL, Dose: 0, 3750, 7500 PPM IN DIET, Dose: 0, 3750, 7500 PPM IN DIET) “inactive; negative”; (Species: MOUSE, Strain/Sex: B6C3F1/MALE, Route: ORAL, Dose: 0, 3750, 7500 PPM IN DIET, Dose: 0, 3750, 7500 PPM IN DIET) “inactive; negative”; (Species: RAT, Strain/Sex: F344/FEMALE, Route: ORAL, Dose: 0, 375, 750 PPM IN DIET, Dose: 0, 375, 750 PPM IN DIET) “inactive; negative”; (Species: RAT, Strain/Sex: F344/MALE, Route: ORAL, Dose: 0, 375, 750 PPM IN DIET, Dose: 0, 375, 750 PPM IN DIET) “inactive; negative”.
`C/C=C/c1ccc2c(c1)OCO2`: the carcinogen call is, setting by setting: (Species: MOUSE, Strain/Sex: B6C3F1/MALE,FEMALE, Route: GAVAGE/ORAL, Dose: 215 MG/KG FROM D 6= 28 OF LIFE THEN 517 MG/KG IN DIET, Tumor Site: Type of Lesion: LIVER) “active; positive”; (Species: RAT, Route: ORAL, Dose: 1000, 2500, 5000, 10000 MG/KG IN DIET FOR 2 YR, Dose: 1000, 2500, 5000, 10000 MG/KG IN DIET FOR 2 YR, Tumor Site: Type of Lesion: LIVER: HEPATOCELLULAR ADENOMA, CARCINOMA) “active; positive”.
As to `OCCN(CCO)CCO`, the carcinogen call by setting is: (Species: MOUSE, Route: ORAL, Tumor Site: Type of Lesion: LYMPHATIC SYSTEM) “active; positive”; (Species: MOUSE, Strain/Sex: B6C3F1/FEMALE, Route: DERMAL, Dose: 0, 100, 300, 1000 MG/KG 5 D/WK FOR 104 -105 WKS (STUDY DURATION: 105 WKS), Dose: 0, 100, 300, 1000 MG/KG 5 D/WK FOR 104 -105 WKS (STUDY DURATION: 105 WKS), Tumor Site: Type of Lesion: LIVER: HEPATOCELLULAR ADENOMA OR CARCINOMA) “active; positive”; (Species: MOUSE, Strain/Sex: B6C3F1/FEMALE, Route: ORAL, Dose: 0, 1, 2% IN DRINKING WATER FOR 82 WK (STUDY DURATION: 82 WK), Dose: 0, 1, 2% IN DRINKING WATER FOR 82 WK (STUDY DURATION: 82 WK)) “inactive; negative”; (Species: MOUSE, Strain/Sex: B6C3F1/MALE, Route: DERMAL, Dose: 0, 200, 630, 2000 MG/KG 5D/WK FOR 104 WKS (STUDY DURATION: 104 WKS), Dose: 0, 200, 630, 2000 MG/KG 5D/WK FOR 104 WKS (STUDY DURATION: 104 WKS), Tumor Site: Type of Lesion: LIVER: HEMANGIOSARCOMA AT MEDIAN DOSE LEVEL) “equivocal; p=0.047 at median dose for hemangiosarcoma”; (Species: MOUSE, Strain/Sex: B6C3F1/MALE, Route: ORAL, Dose: 0, 1, 2% IN DRINKING WATER FOR 82 WK (STUDY DURATION: 82 WK), Dose: 0, 1, 2% IN DRINKING WATER FOR 82 WK (STUDY DURATION: 82 WK)) “inactive; negative”; (Species: RAT, Strain/Sex: F344/FEMALE, Route: DERMAL, Dose: 0, 32, 63, 125 MG/KG 5 D/WK FOR 103 WK (STUDY DURATION: 103 WK), Dose: 0, 32, 63, 125 MG/KG 5 D/WK FOR 103 WK (STUDY DURATION: 103 WK)) “inactive; negative”. Further, the carcinogen call (Species: RAT, Strain/Sex: F344/MALE, Route: DERMAL, Dose: 0, 32, 63, 125 MG/KG 5 D/WK FOR 103 WK (STUDY DURATION: 103 WK), Dose: 0, 32, 63, 125 MG/KG 5 D/WK FOR 103 WK (STUDY DURATION: 103 WK), Tumor Site: Type of Lesion: KIDNEY: RENAL TUBULE ADENOMA) was “equivocal”.
Take `O=[N+]([O-])c1ccc2ccc3c4ccccc4ccc3c2c1`: the carcinogen call is “inactive; negative” (Species: MOUSE, Strain/Sex: ICR/FEMALE, Route: INTRAPERITONEAL, Dose: 0, 100 NMOL (TOTAL DOSE) ADMINISTERED IN 3 SUBDOSES OF 1/7, 2/7, AND 4/7 ON DAYS 1, 8 AND 15 OF LIFE, RESPECTIVELY (STUD) and “inactive; negative” (Species: MOUSE, Strain/Sex: ICR/MALE, Route: INTRAPERITONEAL, Dose: 0, 100 NMOL (TOTAL DOSE) ADMINISTERED IN 3 SUBDOSES OF 1/7, 2/7, AND 4/7 ON DAYS 1, 8 AND 15 OF LIFE, RESPECTIVELY (STUD).
As for `CC(CNN)c1ccccc1` (stereo not drawn), the carcinogen call reads like this: (Species: MOUSE, Strain/Sex: SWISS/FEMALE, Route: ORAL, Dose: 0, 156, 312 PPM IN DRINKING WATER DAILY FOR LIFE (STUDY DURATION: 120-140 WK), Dose: 0, 156, 312 PPM IN DRINKING WATER DAILY FOR LIFE (STUDY DURATION: 120-140 WK)) “inactive; negative”; (Species: MOUSE, Strain/Sex: SWISS/MALE, Route: ORAL, Dose: 0, 156, 312 PPM IN DRINKING WATER DAILY FOR LIFE (STUDY DURATION: 120-140 WK), Dose: 0, 156, 312 PPM IN DRINKING WATER DAILY FOR LIFE (STUDY DURATION: 120-140 WK)) “inactive; negative”.
With `O=[N+]([O-])c1cc([As](=O)(O)O)ccc1O`, the carcinogen call (Species: MOUSE, Strain/Sex: B6C3F1/FEMALE, Route: ORAL, Dose: 0, 100, 200 PPM IN FEED FOR 103 WK (STUDY DURATION: 105 WK), Dose: 0, 100, 200 PPM IN FEED FOR 103 WK (STUDY DURATION: 105 WK)) was “inactive; negative”; the carcinogen call (Species: MOUSE, Strain/Sex: B6C3F1/MALE, Route: ORAL, Dose: 0, 100, 200 PPM IN FEED FOR 103 WK (STUDY DURATION: 105 WK), Dose: 0, 100, 200 PPM IN FEED FOR 103 WK (STUDY DURATION: 105 WK)) was “inactive; negative”; the carcinogen call (Species: RAT, Strain/Sex: F344/FEMALE, Route: ORAL, Dose: 0, 50, 100 PPM IN FEED FOR 103 WK (STUDY DURATION: 104 WK), Dose: 0, 50, 100 PPM IN FEED FOR 103 WK (STUDY DURATION: 104 WK)) was “inactive; negative”; the carcinogen call (Species: RAT, Strain/Sex: F344/MALE, Route: ORAL, Dose: 0, 50, 100 PPM IN FEED FOR 103 WK (STUDY DURATION: 104 WK), Dose: 0, 50, 100 PPM IN FEED FOR 103 WK (STUDY DURATION: 104 WK), Tumor Site: Type of Lesion: EXOCRINE PANCREAS: ADENOMA) is given as “equivocal”.
